# Assay results from US7550484B2, “Chemokine receptor binding heterocyclic compounds with enhanced efficacy” (Genzyme Corporation, priority 2003, dated 2009).
# Like-named read-outs stand apart in the source and are kept apart here.
# Assays:
# [1] = test system: white blood cells, CD34 positive progenitor cells, CFU-GM, BFU-E, CFU-GEMM progenitor cells
# Procedure: Five healthy human volunteers having initial white blood cell counts of 4,500-7,500 cells/mm^3 were used in the study. […] Blood samples were obtained via catheter prior to the dose, and at various times up to 24 hours after dosing.
# The blood samples were evaluated for total white blood cells, CD34 positive progenitor cells (via FACS analysis) as a percentage of total white blood cells, as well as the absolute numbers per mL and cycling status of granulocyte macrophage (CFU-GM), erythroid (BFU-E), and multipotential (CFU-GEMM) progenitor cells.
# All progenitor cell results are based on the scoring of 3 culture plates per assay per point.
# For the progenitor cell numbers and cycling status, the numbers of CFU-GM, BFU-E and CFU-GEMM in methylcellulose cultures by stimulation of the cells with 1 Unit (U)/ml recombinant human (rhu) erythropoietin, 100 U/ml rhu granulocyte-macrophage colony stimulating factor (GM-CSF), 100 U/ml rhu interleukin-3 (IL-3) and 50 ng/ml rhu steel factor (SLF=stem cell factor (SCF)). The CFU-GM were also evaluated in agar cultures stimulated with 100 U/ml rhu GM-CSF and 50 ng/ml rhu SLF. For both types of assays, colonies were scored after 14 day incubation in a humidified atmosphere with 5% CO2 and lowered (5%) O2 tension. Cell cycling status of progenitors was measured using a high specific activity tritiated thymidine kill technique as previously described (Broxmeyer, H. E., et al., Exp. Hematol. (1989) 17:455-459).
# [2] = test system: white blood cell count
# Procedure: Eleven human patients having initial white blood cell counts of 4,000-6,500 cells/mm^3 were used in the study. […] Aliquots from this stock solution were added to 50-ml bags of 0.9% saline for intravenous injection in amounts to achieve the desired dosage levels (10 μg/kg-80 μg/kg).
# The subjects described in this Example already contained an indwelling peripheral intravenous catheter. […] Blood samples were obtained prior to the dose, and at various times up to 24 hours after dose administration.
# Three patients were administered dosages of 10 μg/kg (open circles); 3 patients were administered dosages of 20 μg/kg (solid circles); 3 patients were administered 40 μg/kg (open triangles); and 2 patients were administered 80 μg/kg (closed triangles).
# [3] = test system: progenitor cells; details: AMD3100 5 mg/Kg s.c. + MIP-1α 5 μg I.V., 11 hours after rhu G-CSF or saline, 1 hour before blood
# Procedure: Groups of mice were randomized to receive control diluent (saline) or G-CSF at a dose of 2.5 μg per mouse, twice a day, for two days via s.c. injection. […] One hour later, the mice were sacrificed and the number of progenitor cells per mL of blood were measured.
# [4] = T = 1 hours after injection, average of 5 donors
structure (smiles),measurement,setting,value
"c1cc(CN2CCCNCCNCCCNCC2)ccc1CN1CCCNCCNCCCNCC1 [AMD3100, 1,1′-[1,4-phenylenebis(methylene)]-bis-1,4,8,11-tetra-azacyclotetradecane]","Fold change compared to TIME = 0, nucleated cellularity PBL-LD, MEAN","[1]; T = 3, average of 5 donors",2.86 fold
same,"Fold change compared to TIME = 0, nucleated cellularity PBL-US, MEAN","[1]; T = 3, average of 5 donors",2.80 fold
same,"Fold change, BFU-E, methylcellulose culture, MEAN","[1]; T = 3, average of 5 donors",3.21 fold
same,"Fold change, CFU-GEMM, methylcellulose culture, MEAN","[1]; T = 3, average of 5 donors",4.33 fold
same,"Fold change, CFU-GM, agar culture, MEAN","[1]; T = 3, average of 5 donors",8.54 fold
same,"Fold change, CFU-GM, methylcellulose culture, MEAN","[1]; T = 3, average of 5 donors",13.66 fold
same,"% CHG, BFU-E, methylcellulose culture","[1]; T = 6, average of 5 donors",500.5%
same,"% CHG, CFU-GEMM, methylcellulose culture","[1]; T = 6, average of 5 donors",907.2%
same,"% CHG, CFU-GM, agar culture","[1]; T = 6, average of 5 donors",1692.8%
same,"% CHG, CFU-GM, methylcellulose culture","[1]; T = 6, average of 5 donors",2070.6%
same,"% CHG, nucleated cellularity PBL-LD","[1]; T = 6, average of 5 donors",266.3%
same,"% CHG, nucleated cellularity PBL-US","[1]; T = 6, average of 5 donors",225.8%
same,"Fold change compared to TIME = 0, nucleated cellularity PBL-LD, MEAN","[1]; T = 6, average of 5 donors",3.66 fold
same,"Fold change compared to TIME = 0, nucleated cellularity PBL-US, MEAN","[1]; T = 6, average of 5 donors",3.26 fold
same,"Fold change, BFU-E, methylcellulose culture, MEAN","[1]; T = 6, average of 5 donors",6.01 fold
same,"Fold change, CFU-GEMM, methylcellulose culture, MEAN","[1]; T = 6, average of 5 donors",10.07 fold
same,"Fold change, CFU-GM, agar culture, MEAN","[1]; T = 6, average of 5 donors",17.93 fold
same,"Fold change, CFU-GM, methylcellulose culture, MEAN","[1]; T = 6, average of 5 donors",21.71 fold
same,"% CHG, BFU-E, methylcellulose culture","[1]; T = 9, average of 5 donors",334.4%
same,"% CHG, CFU-GEMM, methylcellulose culture","[1]; T = 9, average of 5 donors",425.4%
same,"% CHG, CFU-GM, methylcellulose culture","[1]; T = 9, average of 5 donors",947.3%
same,"% CHG, nucleated cellularity PBL-LD","[1]; T = 9, average of 5 donors",264.3%
same,"% CHG, nucleated cellularity PBL-US","[1]; T = 9, average of 5 donors",209.4%
same,"Fold change compared to TIME = 0, nucleated cellularity PBL-LD, MEAN","[1]; T = 9, average of 5 donors",3.64 fold
same,"Fold change compared to TIME = 0, nucleated cellularity PBL-US, MEAN","[1]; T = 9, average of 5 donors",3.09 fold
same,"Fold change, BFU-E, methylcellulose culture, MEAN","[1]; T = 9, average of 5 donors",4.34 fold
same,"Fold change, CFU-GEMM, methylcellulose culture, MEAN","[1]; T = 9, average of 5 donors",5.25 fold
same,"Fold change, CFU-GM, methylcellulose culture, MEAN","[1]; T = 9, average of 5 donors",10.47 fold
same,"% CHG, CFU-GM, agar culture","[1]; T = 9, average of donors",924.9%
same,"Fold change, CFU-GM, agar culture, MEAN","[1]; T = 9, average of donors",10.25 fold
same,"% CHG, BFU-E, methylcellulose culture","[1]; T = 24, average of 5 donors",26.3%
same,"% CHG, CFU-GEMM, methylcellulose culture","[1]; T = 24, average of 5 donors",53.2%
same,"% CHG, CFU-GM, methylcellulose culture","[1]; T = 24, average of 5 donors",55.5%
same,"% CHG, nucleated cellularity PBL-US","[1]; T = 24, average of 5 donors",7.0%
same,"Fold change compared to TIME = 0, nucleated cellularity PBL-LD, MEAN","[1]; T = 24, average of 5 donors",1.05 fold
same,"Fold change compared to TIME = 0, nucleated cellularity PBL-US, MEAN","[1]; T = 24, average of 5 donors",1.07 fold
same,"Fold change, BFU-E, methylcellulose culture, MEAN","[1]; T = 24, average of 5 donors",1.26 fold
same,"Fold change, CFU-GEMM, methylcellulose culture, MEAN","[1]; T = 24, average of 5 donors",1.53 fold
same,"Fold change, CFU-GM, methylcellulose culture, MEAN","[1]; T = 24, average of 5 donors",1.56 fold
same,"% CHG, CFU-GM, agar culture","[1]; T = 24, average of donors",108.3%
same,"Fold change, CFU-GM, agar culture, MEAN","[1]; T = 24, average of donors",2.08 fold
same,"% CHG, nucleated cellularity PBL-LD",[1]; [4],86.2%
same,"% CHG, nucleated cellularity PBL-US",[1]; [4],68.6%
same,"Fold change compared to TIME = 0, nucleated cellularity PBL-LD, MEAN",[1]; [4],1.86 fold
same,"Fold change compared to TIME = 0, nucleated cellularity PBL-US, MEAN",[1]; [4],1.69 fold
same,Time of maximal fold increases in circulating levels of progenitor cells after injection,[1]; all five donors,6 h
same,Change of white blood cell count,"[2]; all patients, 10-80 μg/kg intravenous, succeeding 5-10 hours after administration",marked increase in white blood cell count
same,Peak white blood cell count,"[2]; one patient, 80 μg/kg intravenous, from 6,000 cells/mm^3","19,000 cells/mm^3"
same,White blood cell count after increase,"[2]; patient showing the least response, 20 μg/kg intravenous, from about 6,300 cells/mm^3","about 9,000 cells/mm^3"
same,Mobilization of progenitor cells in combination with mu MIP-1α,[3],additive to greater than additive
